Laboratory results taken from US8946426B2, “Substituted bicyclic heterocyclic compounds as gamma secretase modulators” (Janssen Pharmaceuticals, Inc., priority 2009, dated 2015).

Experiments:
Assay type in all cases: cell-based
Aβ42 [1] = assay: Method 1: Aβ42 sandwich ELISA in supernatant of SKNBE2 cells carrying APP 695-wild type (Tables 7a, 7b)
Method in brief: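 SKNBE2 cells expressing wild-type APP695 were exposed to compound for 18 hours. Secreted Aβ42 was quantified by sandwich ELISA with C-terminal-selective capture, biotinylated 3D6 detection and TMB read-out at 450 nm. IC50 came from 4-parameter fits of % inhibition or % of untreated control; WST-1 monitored toxicity.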

Aβtotal [2] = assay: Method 1: Aβtotal sandwich ELISA in supernatant of SKNBE2 cells carrying APP 695-wild type (Tables 7a, 7b)
Description: (§1) Screening was carried out using SKNBE2 cells carrying the APP 695-wild type, grown in Dulbecco's Modified Eagle's Medium/Nutrient mixture F-12 (DMEM/NUT-mix F-12) (HAM) provided by Gibco (cat no. 31330-38) containing 5% Serum/Fe supplemented with 1% non-essential amino acids. Cells were grown to near confluency.
The screening was performed using the assay as described in Citron et al (1997) Nature Medicine 3: 67. Briefly, cells were plated in a 96-well plate at about 10^5 cells/ml one day prior to addition of compounds. Compounds were added to the cells in Ultraculture (Lonza, BE12-725F) supplemented with 1% glutamine (Invitrogen, 25030-024) for 18 Hours. The media were assayed by two sandwich ELISAs, for Aβ42 and Aβtotal. Toxicity of the compounds was assayed by WST-1 cell proliferation reagent (Roche, 1 644 807) according to the manufacturer's protocol.
To quantify the amount of Aβtotal in the cell supernatant, samples and standards were added to a 6E10-coated plate. The plate was allowed to incubate overnight at 4° C. in order to allow formation of the antibody-amyloid complex. Following this incubation and subsequent wash steps a selective anti-Aβ-antibody conjugate (biotinylated 4G8) was added and incubated for a minimum of 1 Hour in order to allow formation of the antibody-Amyloid-antibody-complex. After incubation and appropriate wash steps, a Streptavidine-Peroxidase-Conjugate was added, followed 30 minutes later by an addition of Quanta Blu fluorogenic peroxidase substrate according to the manufacturer's instructions (Pierce Corp., Rockford, Ill.).
To obtain the values reported in Table 7a, the sigmoidal dose response curves were analysed by computerised curve-fitting, with percent of inhibition plotted against compound concentration. A 4-parameter equation (model 205) in XLfit was used to determine the IC50. The top and the bottom of the curve were fixed to 100 and 0, respectively, and the hill slope was fixed to 1. The IC50 represents the concentration of a compound that is required for inhibiting a biological effect by 50% (Here, it is the concentration where Aβ peptide level is reduced by 50%).
(§2) To obtain the values reported in Table 7b, the data were calculated as percentage of the maximum amount of amyloid Beta 42 measured in the absence of the test compound. The sigmoidal dose response curves were analyzed using non-linear regression analysis with percentage of the control plotted against the log concentration of the compound. A 4-parameter equation was used to determine the IC50. The values reported in Table 7b are averaged IC50 values.

Aβ42 [3] = assay: Method 2: Aβ42 Alphalisa in supernatant of SKNBE2 cells carrying APP 695-wild type (Table 7c); conditions: Method 2, Alphalisa, overnight incubation
Description: as §1, with “Invitrogen” for “Gibco”, “10371-029)” for “31330-38)”, “acids, 1-glutamine 2 mM, Hepes 15 mM, penicillin 50 U/ml (units/ml) en streptomycin 50 μg/ml.” for “acids.”
(§3) The screening was performed using a modification of the assay as described in Citron et al (1997) Nature Medicine 3: 67. Briefly, cells were plated in a 384-well plate at 10^4 cells/well in Ultraculture (Lonza, BE12-725F) supplemented with 1% glutamine (Invitrogen, 25030-024), 1% non-essential amino acid (NEAA), penicillin 50 U/ml en streptomycin 50 μg/ml in the presence of test compound at different test concentrations. The cell/compound mixture was incubated overnight at 37° C., 5% CO2. The next day the media were assayed by two sandwich immuno-assays, for Aβ42 and Aβtotal.
(§4) Aβtotal and Aβ42 concentrations were quantified in the cell supernatant using the Aphalisa technology (Perkin Elmer). Alphalisa is a sandwich assay using biotinylated antibody attached to streptavidin coated donorbeads and antibody conjugated to acceptor beads. In the presence of antigen, the beads come into close proximity. The excitation of the donor beads provokes the release of singlet oxygen molecules that trigger a cascade of energy transfer in the acceptor beads, resulting in light emission. To quantify the amount of Aβ42 in the cell supernatant, monoclonal antibody specific to the C-terminus of Aβ42 (JRF/cAβ42/26) was coupled to the receptor beads and biotinylated antibody specific to the N-terminus of Aβ (JRF/AβN/25) was used to react with the donor beads. To quantify the amount of Aβtotal in the cell supernatant, monoclonal antibody specific to the N-terminus of Aβ (JRF/AβN/25) was coupled to the receptor beads and biotinylated antibody specific to the mid region of Aβ (biotinylated 4G8) was used to react with the donor beads.
as §2, with “7c,” for “7b,”, “IC50.” for “IC50. The values reported in Table 7b are averaged IC50 values.”

Aβtotal [4] = assay: Method 2: Aβtotal Alphalisa in supernatant of SKNBE2 cells carrying APP 695-wild type (Table 7c); conditions: Method 2, Alphalisa, overnight incubation
Description: as §1, with “Invitrogen” for “Gibco”, “10371-029)” for “31330-38)”, “acids, 1-glutamine 2 mM, Hepes 15 mM, penicillin 50 U/ml (units/ml) en streptomycin 50 μg/ml.” for “acids.”
as §3, §4
as §2, with “7c,” for “7b,”, “IC50.” for “IC50. The values reported in Table 7b are averaged IC50 values.”

[5] = Table 7b, averaged IC50, non-linear regression of percentage of control vs log concentration, 4-parameter equation
[6] = Table 7a, SKNBE2 cells, compounds 18 h, XLfit 4-parameter fit of percent inhibition, top/bottom fixed to 100/0, hill slope 1

SMILES	IC50 (Aβ42 [1]; [5]) [nM]	IC50 (Aβtotal [2]; [5]) [nM]	IC50 (Aβ42 [3]) [nM]	IC50 (Aβtotal [4]) [µM]	IC50 (Aβ42 [1]; [6]) [nM]	IC50 (Aβtotal [2]; [6]) [nM]
COc1cc(Nc2cc(C(C)C)nc3c2nc(-c2ccc(F)cc2)n3C)ccc1-c1cnc(C)o1 [Compound 190]	5	> 3000	10	> 10		
Cc1ncoc1-c1ccc(Nc2cccn3cc(CC4CCOCC4)nc23)cn1 [Compound 164]	1410	9330	1320	6.76		
Cc1ncc(-c2ccc(Nc3cc(C#N)cc4c3nc(-c3ccc(F)cc3)n4C)cn2)o1 [Compound 86]	19	> 3000	52	> 10		
COc1cc(Nc2cc(C#N)cn3cc(CC(C)C)nc23)ccc1-c1ocnc1C [Compound 202]	135	> 3000	245	8.51		
COc1cc(Nc2cc(F)cn3cc(C4CCOCC4)nc23)ccc1-c1ocnc1C [Compound 163]	245	> 10000	158	> 10		
Cc1ncc(-c2ccc(Nc3cccc4c3nc(C(C)c3ccc(Cl)cc3)n4C)cn2)o1 (racemic) [Compound 87]	251	> 10000	288	9.12		
Cc1cc2c(nc(-c3cccc(Cl)c3)n2C)c(Nc2ccc(-c3ocnc3C)nc2)n1 [Compound 111]	339	> 10000	204	> 10		
Cc1ncc(-c2ccc(Nc3cccc4c3nc(C3(c5ccc(Cl)cc5)CC3)n4C)cn2)o1 [Compound 88]	66	> 10000	58	8.91		
Cc1nc(C)c(-c2ccc(Nc3cc(F)cc4c3nc(-c3ccccc3Cl)n4C)cn2)o1 [Compound 79]	28	> 3000	76	> 10		
Cc1cn2cccc(Nc3ccc(-c4cnc(C)o4)nc3)c2n1 [Compound 172]	2090	> 3000	661	> 10		
Cc1ncc(-c2ccc(Nc3nccc4c3nc(-c3ccc(F)cc3)n4C(C)C)cc2)o1 [Compound 26]	871	> 30000	191	> 10		
Cc1ncoc1-c1ccc(Nc2cccc3c2nc(-c2ccc(F)cc2)n3C(C)C)cc1F [Compound 65]	83	> 3000	117	> 10		
Cc1ncc(-c2ccc(Nc3cc(F)cn4cc(-c5ccc(F)cc5C)nc34)cn2)o1 [Compound 171]	20	> 3000	38	> 10		
Cc1nc(C)c(-c2ccc(Nc3cccc4c3nc(-c3ccc(F)cc3)n4C(C)C)cn2)o1 [Compound 82]	37	> 3000	49	> 10		
Cc1ncoc1-c1ccc(Nc2cccc3c2nc(-c2ccc(F)cc2)n3C)cn1 [Compound 35]	89		214	> 10	90	> 3000

The next lines start with the values.

IC50 (Aβ42 [1]; [5]) [nM]	IC50 (Aβtotal [2]; [5]) [nM]	IC50 (Aβ42 [3]) [nM]	IC50 (Aβtotal [4]) [µM]	IC50 (Aβ42 [1]; [6]) [nM]	IC50 (Aβtotal [2]; [6]) [nM]	SMILES
21	> 3000	18	> 10			Cc1ncc(-c2ccc(Nc3cccn4c(C)c(-c5ccccc5C(F)(F)F)nc34)cn2)o1 [Compound 167]
9	> 3000	7	> 10			Cc1ncc(-c2ccc(Nc3cccn4c(C)c(-c5ccccc5Cl)nc34)cn2)o1 [Compound 173]
20	> 3000	72	> 10	38	> 3000	Cc1ncc(-c2ccc(Nc3cccn4cc(-c5cc(C(F)(F)F)ccc5C)nc34)cc2)o1 [Compound 50]
10	> 3000	22	> 10			COCCc1c(-c2ccc(F)cc2)nc2c(Nc3ccc(-c4cnc(C)o4)c(OC)c3)cccn12 [Compound 174]
18	> 3000	25	> 10			Cc1ncc(-c2ccc(Nc3cc(F)cc4c3nc(-c3ccccc3Cl)n4C)cn2)o1 [Compound 107]
20	> 3000	40	> 10	21	> 3000	Cc1ncc(-c2ccc(Nc3cccn4c(C)c(-c5ccccc5Cl)nc34)cc2)o1 [Compound 49]
66	> 3000	363	> 10			Cc1ncc(-c2ccc(Nc3nccc4c3nc(-c3ccccc3Cl)n4C)cn2)o1 [Compound 85]
